Measured values taken from ChEMBL document CHEMBL4507268 (2021).

Assays:
Conditions in all cases: Compound concentration 1.0 uM
[1] = molecular target: Calcium/calmodulin-dependent protein kinase type 1D (Homo sapiens) (UniProt Q8IU85)
[2] = molecular target: Protein kinase C gamma type (Homo sapiens) (UniProt P05129)
[3] = molecular target: Dual specificity tyrosine-phosphorylation-regulated kinase 3 (Homo sapiens) (UniProt O43781)
[4] = molecular target: T1, Aurora kinase C (Homo sapiens) (UniProt Q9UQB9)
T1 sequence (whole entry): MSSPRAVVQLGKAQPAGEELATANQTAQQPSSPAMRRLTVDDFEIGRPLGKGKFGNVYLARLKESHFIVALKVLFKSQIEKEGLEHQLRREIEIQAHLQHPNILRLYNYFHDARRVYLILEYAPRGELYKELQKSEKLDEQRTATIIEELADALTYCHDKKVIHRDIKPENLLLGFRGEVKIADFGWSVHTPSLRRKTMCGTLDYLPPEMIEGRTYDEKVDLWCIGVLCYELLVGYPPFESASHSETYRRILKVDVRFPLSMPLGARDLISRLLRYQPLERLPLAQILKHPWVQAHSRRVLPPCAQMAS

[5] = molecular target: T2, Serine/threonine-protein kinase 17B (Homo sapiens) (UniProt O94768)
T2 sequence (whole entry): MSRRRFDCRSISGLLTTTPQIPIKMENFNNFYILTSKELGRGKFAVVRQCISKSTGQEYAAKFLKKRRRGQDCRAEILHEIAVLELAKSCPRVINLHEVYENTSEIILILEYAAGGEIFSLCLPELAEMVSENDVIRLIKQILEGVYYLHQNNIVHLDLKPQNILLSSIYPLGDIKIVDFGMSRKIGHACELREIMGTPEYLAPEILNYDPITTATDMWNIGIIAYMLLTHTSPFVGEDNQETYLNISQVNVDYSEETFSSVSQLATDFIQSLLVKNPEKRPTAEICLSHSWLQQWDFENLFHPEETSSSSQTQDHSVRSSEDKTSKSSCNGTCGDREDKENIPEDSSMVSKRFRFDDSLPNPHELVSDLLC

[6] = molecular target: Dual specificity protein kinase CLK4 (Homo sapiens) (UniProt Q9HAZ1)
[7] = molecular target: Serine/threonine-protein kinase 16 (Homo sapiens) (UniProt O75716)
Chain of Serine/threonine-protein kinase 16 (Homo sapiens) (O75716 whole entry): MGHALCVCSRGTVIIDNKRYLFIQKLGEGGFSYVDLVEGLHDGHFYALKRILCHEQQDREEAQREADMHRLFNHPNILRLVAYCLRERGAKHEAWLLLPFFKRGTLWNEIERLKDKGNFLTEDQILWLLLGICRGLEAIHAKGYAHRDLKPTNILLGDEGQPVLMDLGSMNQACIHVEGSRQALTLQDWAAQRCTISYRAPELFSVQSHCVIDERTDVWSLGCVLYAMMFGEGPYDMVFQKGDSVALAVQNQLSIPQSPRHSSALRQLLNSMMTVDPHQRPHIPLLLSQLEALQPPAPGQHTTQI

[8] = molecular target: Myosin light chain kinase 2, skeletal/cardiac muscle (Homo sapiens) (UniProt Q9H1R3)
[9] = molecular target: Casein kinase I isoform gamma-1 (Homo sapiens) (UniProt Q9HCP0)
[10] = molecular target: Serine/threonine-protein kinase 24 (Homo sapiens) (UniProt Q9Y6E0)
Chain of Serine/threonine-protein kinase 24 (Homo sapiens) (Q9Y6E0 whole entry, looked up): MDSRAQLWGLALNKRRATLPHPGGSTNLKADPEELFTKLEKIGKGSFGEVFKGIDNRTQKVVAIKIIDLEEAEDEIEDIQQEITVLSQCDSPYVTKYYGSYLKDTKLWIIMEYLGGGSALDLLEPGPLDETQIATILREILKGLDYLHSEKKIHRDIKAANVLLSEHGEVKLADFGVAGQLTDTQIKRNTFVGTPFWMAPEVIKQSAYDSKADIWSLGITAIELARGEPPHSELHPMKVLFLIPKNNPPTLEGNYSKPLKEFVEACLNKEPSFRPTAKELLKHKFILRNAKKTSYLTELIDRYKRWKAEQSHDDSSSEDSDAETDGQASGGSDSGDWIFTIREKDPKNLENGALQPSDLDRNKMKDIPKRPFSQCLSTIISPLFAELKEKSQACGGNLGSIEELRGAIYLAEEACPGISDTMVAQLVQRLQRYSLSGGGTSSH

[11] = molecular target: Serine/threonine-protein kinase Nek6 (Homo sapiens) (UniProt Q9HC98)
Chain of Serine/threonine-protein kinase Nek6 (Homo sapiens) (Q9HC98 whole entry): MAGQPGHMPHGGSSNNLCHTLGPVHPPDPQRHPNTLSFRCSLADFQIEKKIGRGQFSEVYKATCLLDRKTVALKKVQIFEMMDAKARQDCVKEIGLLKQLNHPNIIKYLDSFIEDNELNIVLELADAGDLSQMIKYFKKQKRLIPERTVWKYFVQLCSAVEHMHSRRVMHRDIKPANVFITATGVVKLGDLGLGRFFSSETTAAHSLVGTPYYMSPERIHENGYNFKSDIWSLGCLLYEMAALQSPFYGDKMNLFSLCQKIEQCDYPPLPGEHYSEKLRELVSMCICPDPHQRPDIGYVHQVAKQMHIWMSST

[12] = molecular target: Serine/threonine-protein kinase NIM1 (Homo sapiens) (UniProt Q8IY84)
[13] = molecular target: Tyrosine-protein kinase Fes/Fps (Homo sapiens) (UniProt P07332)
[14] = molecular target: Phosphatidylinositol 4-phosphate 5-kinase type-1 alpha (Homo sapiens) (UniProt Q99755)
Chain of Phosphatidylinositol 4-phosphate 5-kinase type-1 alpha (Homo sapiens) (Q99755 whole entry): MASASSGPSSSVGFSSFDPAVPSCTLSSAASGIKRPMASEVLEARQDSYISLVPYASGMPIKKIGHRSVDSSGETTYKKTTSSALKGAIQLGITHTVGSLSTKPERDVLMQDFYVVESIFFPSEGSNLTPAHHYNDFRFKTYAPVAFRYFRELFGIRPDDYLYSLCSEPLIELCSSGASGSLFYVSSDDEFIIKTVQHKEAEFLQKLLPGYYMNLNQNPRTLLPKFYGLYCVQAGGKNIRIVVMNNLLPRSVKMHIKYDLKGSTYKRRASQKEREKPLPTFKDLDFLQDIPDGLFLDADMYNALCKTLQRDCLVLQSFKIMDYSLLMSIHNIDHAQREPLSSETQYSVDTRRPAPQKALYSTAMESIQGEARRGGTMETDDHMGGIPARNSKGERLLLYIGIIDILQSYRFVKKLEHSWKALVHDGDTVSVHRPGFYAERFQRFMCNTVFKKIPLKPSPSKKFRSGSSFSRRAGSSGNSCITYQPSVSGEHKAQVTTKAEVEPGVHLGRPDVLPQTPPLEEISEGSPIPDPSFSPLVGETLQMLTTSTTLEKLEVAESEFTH

[15] = molecular target: RAC-beta serine/threonine-protein kinase (Homo sapiens) (UniProt P31751)
[16] = molecular target: Epithelial discoidin domain-containing receptor 1 (Homo sapiens) (UniProt Q08345)
[17] = molecular target: Transcription initiation factor TFIID subunit 1-like (Homo sapiens) (UniProt Q8IZX4)
Chain of Transcription initiation factor TFIID subunit 1-like (Homo sapiens) (Q8IZX4 whole entry): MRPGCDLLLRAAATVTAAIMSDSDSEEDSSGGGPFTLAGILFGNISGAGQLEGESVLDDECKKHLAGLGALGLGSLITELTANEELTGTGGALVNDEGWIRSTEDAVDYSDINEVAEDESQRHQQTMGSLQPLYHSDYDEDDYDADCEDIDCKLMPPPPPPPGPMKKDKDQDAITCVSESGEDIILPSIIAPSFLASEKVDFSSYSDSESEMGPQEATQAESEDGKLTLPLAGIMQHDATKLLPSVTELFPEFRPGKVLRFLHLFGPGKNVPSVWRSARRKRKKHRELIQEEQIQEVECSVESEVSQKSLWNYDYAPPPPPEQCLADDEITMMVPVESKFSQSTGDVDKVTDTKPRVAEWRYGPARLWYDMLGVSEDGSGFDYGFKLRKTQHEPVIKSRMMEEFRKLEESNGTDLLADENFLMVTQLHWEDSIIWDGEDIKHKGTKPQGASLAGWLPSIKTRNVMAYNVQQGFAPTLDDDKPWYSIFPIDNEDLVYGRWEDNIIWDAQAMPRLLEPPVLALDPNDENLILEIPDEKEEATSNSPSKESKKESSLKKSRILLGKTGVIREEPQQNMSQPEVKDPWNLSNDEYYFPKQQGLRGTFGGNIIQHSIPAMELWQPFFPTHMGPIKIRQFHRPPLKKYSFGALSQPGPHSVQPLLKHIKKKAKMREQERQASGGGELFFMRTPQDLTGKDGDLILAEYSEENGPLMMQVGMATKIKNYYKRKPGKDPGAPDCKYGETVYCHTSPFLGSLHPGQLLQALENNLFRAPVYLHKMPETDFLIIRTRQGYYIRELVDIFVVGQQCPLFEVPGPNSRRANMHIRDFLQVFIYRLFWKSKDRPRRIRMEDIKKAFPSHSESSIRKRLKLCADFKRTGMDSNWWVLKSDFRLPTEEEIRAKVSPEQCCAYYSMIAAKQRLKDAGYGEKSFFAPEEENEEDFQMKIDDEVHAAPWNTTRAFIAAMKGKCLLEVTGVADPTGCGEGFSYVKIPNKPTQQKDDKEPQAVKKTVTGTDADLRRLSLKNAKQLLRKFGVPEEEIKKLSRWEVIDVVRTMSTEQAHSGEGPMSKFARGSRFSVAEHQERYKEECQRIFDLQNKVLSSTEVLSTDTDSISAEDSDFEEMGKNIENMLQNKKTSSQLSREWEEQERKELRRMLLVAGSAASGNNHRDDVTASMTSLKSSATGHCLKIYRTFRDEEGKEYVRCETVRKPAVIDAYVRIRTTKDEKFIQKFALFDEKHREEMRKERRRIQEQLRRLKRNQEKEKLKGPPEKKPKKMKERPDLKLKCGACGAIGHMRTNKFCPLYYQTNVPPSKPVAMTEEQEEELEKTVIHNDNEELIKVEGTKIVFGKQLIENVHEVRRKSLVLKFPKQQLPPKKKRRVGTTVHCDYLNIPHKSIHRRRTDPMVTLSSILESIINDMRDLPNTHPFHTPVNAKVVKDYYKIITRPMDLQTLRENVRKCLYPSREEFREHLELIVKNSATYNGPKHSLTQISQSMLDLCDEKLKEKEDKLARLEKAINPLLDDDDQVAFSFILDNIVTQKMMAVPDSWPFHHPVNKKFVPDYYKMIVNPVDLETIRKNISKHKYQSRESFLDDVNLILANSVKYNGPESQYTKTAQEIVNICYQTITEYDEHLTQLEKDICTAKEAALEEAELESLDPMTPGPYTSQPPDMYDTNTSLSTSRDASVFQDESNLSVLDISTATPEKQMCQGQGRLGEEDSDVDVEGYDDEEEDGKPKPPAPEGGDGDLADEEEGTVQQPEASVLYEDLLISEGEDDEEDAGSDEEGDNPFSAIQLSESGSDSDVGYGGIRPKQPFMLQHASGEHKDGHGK

[18] = molecular target: Insulin-like growth factor 1 receptor (Homo sapiens) (UniProt P08069)
[19] = molecular target: Mitogen-activated protein kinase 1 (Homo sapiens) (UniProt P28482)
Chain of Mitogen-activated protein kinase 1 (Homo sapiens) (P28482 whole entry): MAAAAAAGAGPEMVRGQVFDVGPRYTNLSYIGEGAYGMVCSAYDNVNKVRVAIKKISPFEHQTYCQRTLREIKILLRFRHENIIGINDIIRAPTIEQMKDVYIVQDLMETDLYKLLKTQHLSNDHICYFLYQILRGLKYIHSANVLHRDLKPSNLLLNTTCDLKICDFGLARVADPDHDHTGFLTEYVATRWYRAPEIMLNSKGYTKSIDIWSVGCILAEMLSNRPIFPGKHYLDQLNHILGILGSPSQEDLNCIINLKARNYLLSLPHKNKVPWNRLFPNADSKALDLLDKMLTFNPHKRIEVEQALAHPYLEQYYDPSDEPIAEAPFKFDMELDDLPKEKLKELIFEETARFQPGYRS

[20] = molecular target: Calcium/calmodulin-dependent protein kinase type II subunit beta (Homo sapiens) (UniProt Q13554)
[21] = molecular target: Serine/threonine-protein kinase 38-like (Homo sapiens) (UniProt Q9Y2H1)
[22] = molecular target: Serine/threonine-protein kinase MRCK beta (Homo sapiens) (UniProt Q9Y5S2)
[23] = molecular target: T3, Calcium/calmodulin-dependent protein kinase type IV (Homo sapiens) (UniProt Q16566)
T3 sequence (whole entry): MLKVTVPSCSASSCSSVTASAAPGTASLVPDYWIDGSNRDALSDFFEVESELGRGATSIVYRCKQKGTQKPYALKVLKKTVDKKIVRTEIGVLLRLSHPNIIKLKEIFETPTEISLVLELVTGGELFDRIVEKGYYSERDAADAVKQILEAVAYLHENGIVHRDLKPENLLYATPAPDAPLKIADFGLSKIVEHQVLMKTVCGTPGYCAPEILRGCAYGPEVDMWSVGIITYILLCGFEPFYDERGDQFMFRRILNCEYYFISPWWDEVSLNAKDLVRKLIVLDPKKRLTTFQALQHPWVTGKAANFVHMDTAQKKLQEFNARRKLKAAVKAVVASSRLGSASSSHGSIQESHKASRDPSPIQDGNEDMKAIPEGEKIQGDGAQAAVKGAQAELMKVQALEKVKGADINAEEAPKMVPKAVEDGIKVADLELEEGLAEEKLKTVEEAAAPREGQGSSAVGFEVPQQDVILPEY

[24] = molecular target: Calcium/calmodulin-dependent protein kinase kinase 1 (Homo sapiens) (UniProt Q8N5S9)
Chain of Calcium/calmodulin-dependent protein kinase kinase 1 (Homo sapiens) (Q8N5S9 whole entry, looked up): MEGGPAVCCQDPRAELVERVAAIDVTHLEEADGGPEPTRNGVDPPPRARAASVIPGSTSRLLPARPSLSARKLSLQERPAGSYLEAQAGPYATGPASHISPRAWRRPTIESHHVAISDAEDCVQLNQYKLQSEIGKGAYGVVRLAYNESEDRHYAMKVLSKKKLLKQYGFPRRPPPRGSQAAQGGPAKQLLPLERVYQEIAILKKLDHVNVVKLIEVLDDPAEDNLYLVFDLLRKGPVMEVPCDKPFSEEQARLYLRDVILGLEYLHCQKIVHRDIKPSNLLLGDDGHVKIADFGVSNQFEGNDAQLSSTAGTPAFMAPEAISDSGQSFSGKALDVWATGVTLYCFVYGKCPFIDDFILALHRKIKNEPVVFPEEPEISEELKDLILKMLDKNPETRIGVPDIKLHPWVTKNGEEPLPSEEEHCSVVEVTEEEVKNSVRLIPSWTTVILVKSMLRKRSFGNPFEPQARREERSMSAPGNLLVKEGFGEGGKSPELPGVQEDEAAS

[25] = molecular target: Serine/threonine-protein kinase pim-3 (Homo sapiens) (UniProt Q86V86)
[26] = molecular target: Tyrosine-protein kinase Lck (Homo sapiens) (UniProt P06239)

Measured: % residual kinase activity

Chain of Dual specificity tyrosine-phosphorylation-regulated kinase 3 (Homo sapiens) (O43781 whole entry): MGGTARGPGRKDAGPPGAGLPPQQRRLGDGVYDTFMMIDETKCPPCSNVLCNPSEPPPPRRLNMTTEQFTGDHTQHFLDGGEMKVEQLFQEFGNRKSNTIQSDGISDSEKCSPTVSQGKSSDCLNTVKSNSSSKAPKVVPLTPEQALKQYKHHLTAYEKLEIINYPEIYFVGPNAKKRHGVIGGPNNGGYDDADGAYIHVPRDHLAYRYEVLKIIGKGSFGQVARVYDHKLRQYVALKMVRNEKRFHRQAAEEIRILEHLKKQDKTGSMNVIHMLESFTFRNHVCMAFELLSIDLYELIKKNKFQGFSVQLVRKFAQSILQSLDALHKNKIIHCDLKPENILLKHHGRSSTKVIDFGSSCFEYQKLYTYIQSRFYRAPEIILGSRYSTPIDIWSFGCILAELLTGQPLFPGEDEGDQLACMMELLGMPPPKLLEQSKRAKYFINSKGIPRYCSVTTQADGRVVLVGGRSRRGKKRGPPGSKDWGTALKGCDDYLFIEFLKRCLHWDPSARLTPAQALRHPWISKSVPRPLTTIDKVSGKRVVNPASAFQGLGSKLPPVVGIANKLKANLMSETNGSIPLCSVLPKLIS

CN1CCN(c2cnc3c(C4CCN(C(=O)c5ccc(OC(F)(F)F)cc5N)CC4)ncnc3c2)CC1 [BAY-885]
inactive: [1] 94% | [2] 120% | [3] 103% | [4] 95% | [5] 117% | [6] 118% | [7] 99% | [8] 93% | [9] 105% | [10] 99% | [11] 125% | [12] 108% | [13] 108% | [14] 98% | [15] 109% | [16] 100% | [17] 120% | [18] 107% | [19] 107% | [20] 103% | [21] 100% | [22] 110% | [23] 96% | [24] 102% | [25] 102% | [26] 105%
